Reference: US7135466B2 (Kirin Beer Kabushiki Kaisha, priority 1999, dated 2006)
Like-named read-outs stand apart in the source and are kept apart here.

Experiments:
c-kit = molecular target: T1, c-kit (Homo sapiens, UniProt P10721); test: Inhibitory activity against c-kit autophosphorylation (MO7e cells, h-SCF); type: cell-based; conditions: for IC50: MO7e cells, read-out: c-kit IC50; for inhibition at 1 µM: Mo7e, figure within parentheses in −( ) or >1000( ), at 1000 nM
T1 construct: MO7e (human megakaryocytic leukemia cell line) which had been arrested for 20 hr; endogenous in cells; host or cells: MO7e human megakaryocytic leukemia cell line
Procedure, shortened: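 MO7e human megakaryocytic leukemia cells, arrested 20 hr, treated with compound 1 hr, then stimulated with 50 ng/ml h-SCF for 5 min and lysed. Lysates captured on immobilized anti-phosphotyrosine antibody, detected with anti-c-kit primary and HRP secondary antibody; absorbance at 450 nm.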

human KDR = molecular target: T2, human KDR (Homo sapiens, UniProt P35968); test: Inhibitory activity against KDR phosphorylation (NIH 3T3 cells transfected with human KDR, VEGF); type: cell-based; conditions: VEGF 100 ng/ml
T2 construct: expressed in transfected cells; host or cells: NIH 3T3 cells
Description: Measurement of Inhibitory Activity Against KDR Phosphorylation
NIH 3T3 cells (Sawano A et al., Cell Growth & Differentiation, 7, 213–221 (1996)) prepared by transfection of human KDR were cultured in a DMEM medium containing 10% FBS (GIBCO BRL) within a 5% carbon dioxide incubator until 50 to 70% confluent. The harvested cells were inoculated into wells of a collagen-type one-coat 96-well flat-bottom plate, each containing the same medium, in an amount of 1.5×10^4 per well, followed by cultivation at 37° C. overnight. The medium was then replaced by a DMEM medium containing 0.1% FBS. A solution of a test compound in dimethyl sulfoxide was added to each well, and the cultivation was carried out at 37° C. for additional one hr. A human recombinant vascular endothelial growth factor (hereinafter abbreviated to “VEGF”) was added to a concentration of 100 ng/ml, and the stimulation of cells was carried out at 37° C. for 2 min. The medium was removed, the cells were washed with phosphate buffered saline (pH 7.4), and 50 μl of a solubilization buffer (20 mM HEPES (pH 7.4), 150 mM NaCl, 0.2% Triton X-100, 10% glycerol, 5 mM sodium orthovanadylate, 5 mM disodium ethylenediaminetetraacetate, and 2 mM Na4P2O7) was then added thereto. The mixture was shaken at 4° C. for 2 hr to prepare a cell extract.
An anti-phospho-tyrosine antibody (PY20; Transduction Laboratories) was immobilized on a microplate for ELISA (Maxisorp; NUNC), and the whole quantity of the cell extract was transferred to the wells, and the immobilized antibody was reacted with the phosphorylated protein at 4° C. overnight. After washing, an anti-KDR antibody (Santa Cruz) was allowed to react at room temperature for one hr, and, further, after washing, a peroxidase-labeled anti-rabbit Ig antibody (Amersham) was allowed to react at room temperature for one hr. After washing, a chromophoric substrate for peroxidase (Sumitomo Bakelite Co., Ltd.) was added thereto and was allowed to react at room temperature. After a suitable level of color development, a reaction termination solution was added to stop the reaction, and the absorbance at 450 nm was measured with a microplate reader. The KDR phosphorylation activity for each well was determined by presuming the absorbance with the addition of VEGF and without the addition of the medicament to be 100% KDR phosphorylation activity and the absorbance without the medicament and VEGF to be 0% KDR phosphorylation activity.
The concentration of the test compound was varied on several levels, the inhibition (%) of KDR phosphorylation was determined for each case, and the concentration of the test compound necessary for inhibiting 50% of KDR phosphorylation (IC50) was calculated.

PDGF-Ra = molecular target: T3, PDGF-Ra (Homo sapiens, UniProt P16234); test: Inhibitory activity against PDGF-Ra phosphorylation by PDGF-AA stimulation using G292; type: cell-based; conditions: > means inhibition at indicated concentration not more than 50%, < and << not less than 50%, read-out: PDGF (E) IC50
T3 construct: host or cells: G-292 human osteosarcoma cells
Procedure, shortened: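 In G-292 osteosarcoma cells kept overnight in 0.1% FBS, compound exposure (1 hr, 37 °C) preceded PDGF-AA stimulation at 50 ng/ml for 5 min; receptor phosphotyrosine was then detected by PY-20 capture ELISA.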

[1] = tested on: neointima of balloon-injured left carotid artery; test: Rat carotid balloon injury model; type: in vivo; conditions: po, 336 h, read-out: I/M ratio, inhibition (%)
Description: Rat Carotid Balloon Injury Model
Wistar male rats ([…]) were anesthetized with pentobarbital anesthesia, the right femoral region was incised from the rats, a Fogaty 2F catheter was inserted through the right femoral artery and was led to the left carotid artery, and abrasion was made three times with an expansion diameter of 2.5 mm.
The test compound was suspended in 1% cremophore, and the suspension was orally administered at 0.4 ml/100 g B.W. twice a day through an oral probe for rats for 2 weeks from the day before an operation. On the second week after the operation, the rats were sacrificed by ether. The left carotid artery was removed and was fixed in buffered formalin. Sliced preparations embedded in paraffin were stained with HE and were subjected to image analysis for the measurement of the neointima area (I) and media area (M) in the section of injured blood vessal. I/M was calculated as an index for the evaluation of drug efficacy.

[2] = tested on: intima of balloon-injured coronary vessel; test: Porcine coronary balloon injury model; type: in vivo; conditions: 10 mg/kg orally twice a day for 28 days, gelatin capsule, shoats
Description: Porcine Coronary Balloon Injury Model Edible shoats (24 to 31 kg) were anesthetized with telazol and xylazine, a balloon catheter was inserted through the femoral artery, and the descending branch in front of the heart on the left and the right rotator branch were injured under vasographing. For 28 days from the operation, the compound of Example 679 was orally administered as a gelatin capsule at a dose of 10 mg/kg twice a day. Further, only a gelatin capsule was administered as a control. In the test, each group consisted of 6 shoats. On the 28th day from the operation, the shoats were sacrificed with pentobarbital and were perfused with buffered formalin, and the heart was then removed. Paraffin embedded preparations of the injured blood vessel portion were sliced and stained with HE, followed by image analysis to measure the intima area (IA), media area (MA), and vessel area (VA), and the fissure length (FL) and vessel perimeter (VP) of the inner elastic plate. IA/MA and (IA/VA)/(FL/VP) were calculated as an index for the evaluation of drug efficacy.

[3] = in vivo, dose: 30 mg/kg, orally twice a day for 2 weeks, Wistar male rats
[4] = in vivo, orally twice a day for 2 weeks, Wistar male rats

T1 sequence (P10721 26-976): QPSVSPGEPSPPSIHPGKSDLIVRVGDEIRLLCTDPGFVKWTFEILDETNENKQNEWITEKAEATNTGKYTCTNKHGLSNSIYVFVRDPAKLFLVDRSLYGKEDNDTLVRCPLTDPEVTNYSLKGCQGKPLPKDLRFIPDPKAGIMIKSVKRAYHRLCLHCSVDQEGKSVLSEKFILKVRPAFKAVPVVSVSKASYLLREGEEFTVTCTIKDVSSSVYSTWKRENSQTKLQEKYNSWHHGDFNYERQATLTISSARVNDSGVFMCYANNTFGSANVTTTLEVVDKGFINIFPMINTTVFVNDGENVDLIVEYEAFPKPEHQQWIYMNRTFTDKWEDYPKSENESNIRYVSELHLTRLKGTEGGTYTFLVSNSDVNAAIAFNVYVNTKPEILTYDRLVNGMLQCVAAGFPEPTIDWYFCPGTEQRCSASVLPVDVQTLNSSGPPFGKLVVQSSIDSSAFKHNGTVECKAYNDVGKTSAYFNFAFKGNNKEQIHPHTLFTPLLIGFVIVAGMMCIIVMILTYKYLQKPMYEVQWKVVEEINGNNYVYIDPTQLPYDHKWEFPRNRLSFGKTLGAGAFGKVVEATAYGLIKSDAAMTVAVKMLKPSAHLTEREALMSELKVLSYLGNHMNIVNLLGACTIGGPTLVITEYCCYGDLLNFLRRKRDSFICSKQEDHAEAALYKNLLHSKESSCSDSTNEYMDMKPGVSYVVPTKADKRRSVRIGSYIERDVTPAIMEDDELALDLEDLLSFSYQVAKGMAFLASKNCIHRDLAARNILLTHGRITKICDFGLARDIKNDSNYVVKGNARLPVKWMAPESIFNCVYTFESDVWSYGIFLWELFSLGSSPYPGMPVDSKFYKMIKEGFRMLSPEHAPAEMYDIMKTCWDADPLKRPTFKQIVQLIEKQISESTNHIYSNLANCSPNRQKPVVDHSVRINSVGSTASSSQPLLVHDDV
T3 sequence (P16234 24-1089): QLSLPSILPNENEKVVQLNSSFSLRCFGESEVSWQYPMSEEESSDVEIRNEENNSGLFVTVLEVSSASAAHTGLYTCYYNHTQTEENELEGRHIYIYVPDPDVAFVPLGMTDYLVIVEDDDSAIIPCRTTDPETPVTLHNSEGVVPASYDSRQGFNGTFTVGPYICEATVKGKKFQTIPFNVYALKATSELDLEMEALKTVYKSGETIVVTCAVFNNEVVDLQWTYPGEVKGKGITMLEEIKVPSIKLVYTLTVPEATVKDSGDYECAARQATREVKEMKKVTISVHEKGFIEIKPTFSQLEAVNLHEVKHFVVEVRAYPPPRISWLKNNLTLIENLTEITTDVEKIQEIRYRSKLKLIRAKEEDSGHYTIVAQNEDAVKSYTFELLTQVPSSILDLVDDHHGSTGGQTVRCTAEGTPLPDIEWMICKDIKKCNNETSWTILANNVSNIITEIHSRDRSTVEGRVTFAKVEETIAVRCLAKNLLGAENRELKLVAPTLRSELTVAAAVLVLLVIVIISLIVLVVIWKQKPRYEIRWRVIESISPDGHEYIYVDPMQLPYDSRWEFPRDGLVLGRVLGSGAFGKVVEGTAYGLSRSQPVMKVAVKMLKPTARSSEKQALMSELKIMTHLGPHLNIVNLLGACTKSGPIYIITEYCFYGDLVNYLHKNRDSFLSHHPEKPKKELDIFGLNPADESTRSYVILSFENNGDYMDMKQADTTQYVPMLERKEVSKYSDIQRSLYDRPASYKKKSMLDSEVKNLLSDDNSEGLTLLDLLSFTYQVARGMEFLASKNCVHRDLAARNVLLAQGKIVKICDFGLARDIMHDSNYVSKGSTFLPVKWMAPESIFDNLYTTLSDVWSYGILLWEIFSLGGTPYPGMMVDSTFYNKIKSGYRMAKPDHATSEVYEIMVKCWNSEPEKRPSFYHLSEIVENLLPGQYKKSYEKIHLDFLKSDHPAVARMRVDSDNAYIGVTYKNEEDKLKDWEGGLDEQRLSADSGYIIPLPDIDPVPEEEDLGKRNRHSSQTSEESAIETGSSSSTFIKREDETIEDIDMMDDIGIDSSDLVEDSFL
T2 sequence (P35968 20-1356): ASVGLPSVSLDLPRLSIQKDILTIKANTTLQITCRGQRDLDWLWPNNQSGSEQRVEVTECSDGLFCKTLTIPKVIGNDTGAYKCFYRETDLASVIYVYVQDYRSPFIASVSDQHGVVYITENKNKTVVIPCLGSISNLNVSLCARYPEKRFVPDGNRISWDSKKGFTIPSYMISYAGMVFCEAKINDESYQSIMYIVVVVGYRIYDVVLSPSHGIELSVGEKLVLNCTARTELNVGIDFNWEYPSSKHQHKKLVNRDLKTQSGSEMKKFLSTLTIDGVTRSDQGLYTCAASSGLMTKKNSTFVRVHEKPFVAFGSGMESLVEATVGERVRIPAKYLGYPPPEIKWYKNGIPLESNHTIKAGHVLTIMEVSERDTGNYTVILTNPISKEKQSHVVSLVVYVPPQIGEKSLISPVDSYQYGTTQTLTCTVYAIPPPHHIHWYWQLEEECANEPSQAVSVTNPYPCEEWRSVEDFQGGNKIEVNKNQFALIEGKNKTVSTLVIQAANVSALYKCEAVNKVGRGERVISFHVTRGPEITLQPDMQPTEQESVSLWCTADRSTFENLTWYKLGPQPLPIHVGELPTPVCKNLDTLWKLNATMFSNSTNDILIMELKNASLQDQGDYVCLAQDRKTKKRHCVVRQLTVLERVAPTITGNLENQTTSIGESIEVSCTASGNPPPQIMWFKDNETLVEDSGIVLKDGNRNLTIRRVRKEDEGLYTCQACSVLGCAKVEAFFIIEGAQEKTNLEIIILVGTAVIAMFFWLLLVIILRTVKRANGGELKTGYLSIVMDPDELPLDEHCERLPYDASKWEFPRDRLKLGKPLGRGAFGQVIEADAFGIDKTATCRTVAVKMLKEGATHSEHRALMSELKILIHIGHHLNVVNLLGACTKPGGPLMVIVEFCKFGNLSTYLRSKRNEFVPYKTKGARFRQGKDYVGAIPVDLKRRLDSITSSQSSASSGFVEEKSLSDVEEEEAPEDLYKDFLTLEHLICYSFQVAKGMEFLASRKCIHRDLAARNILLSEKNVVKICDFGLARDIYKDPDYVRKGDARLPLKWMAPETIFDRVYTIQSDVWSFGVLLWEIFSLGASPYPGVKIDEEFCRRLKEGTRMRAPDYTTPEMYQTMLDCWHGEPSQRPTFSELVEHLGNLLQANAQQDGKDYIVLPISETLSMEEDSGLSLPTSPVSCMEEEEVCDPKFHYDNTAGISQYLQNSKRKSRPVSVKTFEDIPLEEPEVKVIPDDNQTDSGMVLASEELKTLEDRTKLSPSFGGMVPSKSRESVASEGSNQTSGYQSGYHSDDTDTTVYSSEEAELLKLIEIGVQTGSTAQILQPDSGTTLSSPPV

IC50 (c-kit; 50 ng/ml h-SCF)	IC50 (human KDR)	IC50 (PDGF-Ra)	inhibition at 1 µM (c-kit)	IC50 (PDGF-Ra; Pharmacological Test Example 1)	SMILES	inhibition in vivo at 30 mg/kg [1, 3]	inhibition in vivo at 10 mg/kg [1, 4]	IC50 (c-kit; h-SCF 50 ng/ml)	inhibition in vivo at 30 mg/kg [1]	(IA/VA)/(FL/VP) inhibition (%) [2]	IA/MA inhibition (%) [2]
34 nM	692 nM	< 10 nM	–	–	COc1cc2nccc(Oc3ccc(NC(=O)OCCCN4CCOCC4)cc3)c2cc1OC [Example 421, 3-Morpholinopropyl N-{4-[(6,7-dimethoxy-4-quinolyl)oxy]phenyl}carbamate]	42%	–	–	–	–	–
–	176 nM	26 nM	34%	–	CCCCN(CCCC)CCNC(=O)Nc1ccc(Oc2ncnc3cc(OC)c(OC)cc23)cc1[N+](=O)[O-] [Example 687, N-[2-(Dibutylamino)ethyl]-N′-{4-[(6,7-dimethoxy-4-quinazolinyl)oxy]-2-nitrophenyl}urea]	–	17%	–	–	–	–
355 nM	> 1000 nM	11 nM	–	–	CCN(CC)CCNC(=O)Nc1ccc(Oc2ccnc3cc(OC)c(OC)cc23)cc1 [Example 622, N-[2-(Diethylamino)ethyl]-N′-{4-[(6,7-dimethoxy-4-quinolyl)oxy]phenyl}urea]	38%	–	–	–	–	–
–	> 1000 nM	50 nM	27%	–	CCN(CC)CCNC(=S)Nc1ccc(Oc2ncnc3cc(OC)c(OC)cc23)cc1 [Example 516, N-{4-[(6,7-Dimethoxy-4-quinazolinyl)oxy]phenyl}-N′-(2-diethylaminoethyl)thiourea]	32%	–	–	–	–	–
712 nM	599 nM	13 nM	–	–	CCN(CC)CCNC(=O)Nc1ccc(Oc2ncnc3cc(OC)c(OC)cc23)cc1[N+](=O)[O-] [Example 647, N-[2-(Diethylamino)ethyl]-N′-{4-[(6,7-dimethoxy-4-quinazolinyl)oxy]-2-nitrophenyl}urea]	–	32%	–	–	–	–
192 nM	108 nM	< 10 nM	–	–	C#CCC(CC)OC(=O)Nc1ccc(Oc2ccnc3cc(OC)c(OC)cc23)cc1 (centres unmarked) [Example 408, 1-Ethyl-3-butynyl N-{4-[(6,7-dimethoxy-4-quinolyl)oxy]phenyl}carbamate]	50%	–	–	–	–	–
296 nM	> 1000 nM	54 nM	–	–	COc1cc2nccc(Oc3ccc(NC(=O)NC4CCN(Cc5ccccc5)CC4)cc3)c2cc1OC [Example 590, N-{4-[(6,7-Dimethoxy-4-quinolyl)oxy]phenyl}-N′-[4-(N-benzyl)piperidinyl]urea]	86%	–	–	–	–	–
118 nM	> 1000 nM	21 nM	–	–	COc1cc2ncnc(Oc3ccc(NC(=O)N[C@H]4CCN(Cc5ccccc5)C4)cc3)c2cc1OC [Example 567, N-[(3S)-1-Benzyltetrahydro-1H-3-pyrrolyl]-N′-{4-[(6,7-dimethoxy-4-quinazolinyl)oxy]phenyl}urea]	–	24%	–	–	–	–
–	> 1000 nM	–	–	13 nM	COc1cc2nccc(Oc3cc(C)c(NC(=O)OC4CCCCCC4)cc3C)c2cc1OC [Example 287, Cycloheptyl N-{4-[(6,7-dimethoxy-4-quinolyl)oxy]-2,5-dimethylphenyl}carbamate]	37%	–	228 nM	–	–	–
125 nM	37 nM	17 nM	–	–	COc1cc2nccc(Oc3ccc(NC(=S)NC(=O)Cc4ccccc4)cc3F)c2cc1OC [Example 615, N-{4-[(6,7-Dimethoxy-4-quinolyl)oxy]-3-fluorophenyl}-N′-(2-phenylacetyl)thiourea]	43%	–	–	–	–	–
337 nM	323 nM	< 10 nM	–	–	COc1cc2ncnc(Oc3ccc(NC(=O)NCCN4CCCCC4)c([N+](=O)[O-])c3)c2cc1OC [Example 679, N-{4-[(6,7-Dimethoxy-4-quinazolinyl)oxy]-2-nitrophenyl}-N′-(2-piperidinoethyl)urea]	–	54%	–	–	47 (p < 0.001) %	36 (p < 0.05) %
434 nM	47 nM	< 10 nM	–	–	COc1cc2nccc(Oc3ccc(NC(=S)NC(=O)c4ccccc4C)cc3)c2cc1OC [Example 614, N-{4-[(6,7-Dimethoxy-4-quinolyl)oxy]-phenyl}-N′-(2-methylbenzoyl)thiourea]	92%	–	–	–	–	–

SMILES	IC50 (c-kit; 50 ng/ml h-SCF)	IC50 (human KDR)	IC50 (PDGF-Ra)	inhibition at 1 µM (c-kit)	IC50 (PDGF-Ra; Pharmacological Test Example 1)	inhibition in vivo at 30 mg/kg [1, 3]	inhibition in vivo at 10 mg/kg [1, 4]	IC50 (c-kit; h-SCF 50 ng/ml)	inhibition in vivo at 30 mg/kg [1]	(IA/VA)/(FL/VP) inhibition (%) [2]	IA/MA inhibition (%) [2]
COc1cc2nccc(Oc3ccc(NC(=O)Oc4ccccc4C)cc3)c2cc1OC [Example 223, 2-Methylphenyl N-{4-[(6,7-dimethoxy-4-quinolyl)oxy]phenyl}carbamate]	–	38 nM	–	–	–	–	–	101 nM	41%	–	–
